Reference: ChEMBL document CHEMBL3588806, “Generation of Broad-Spectrum Antifungal Drug Candidates from the Natural Product Compound Aureobasidin A” (ACS Med Chem Lett, 2015)
≈ marks a conversion by molar mass, not a printed value. Calls of active or inactive are those of the source. The calls are words filed in the database; no cut-off is given here. Starred links: 1 amine or outer side, 2 acyl side, 3 side chain; linkers in the order of their positions; H or OH if unused. Non-standard residues stand in square brackets, D forms with d. Residues, ends and D or L forms follow the SMILES beside them. X2 = CN([C@@H](Cc1cccc(-c2cccc(-c3ccccc3)c2)c1)C(=O)[*:2])[*:1]; X4 = CN([C@@H](Cc1cccc(-c2ccc(-c3ccccc3)cc2)c1)C(=O)[*:2])[*:1]; X12 = CC(=O)Nc1ccc(-c2cccc(C[C@@H](C(=O)[*:2])N(C)[*:1])c2)cc1; X15 = CNC(=O)c1ccc(-c2cccc(C[C@@H](C(=O)[*:2])N(C)[*:1])c2)cc1; X7 = CN([C@@H](Cc1cccc(B2OC(C)(C)C(C)(C)O2)c1)C(=O)[*:2])[*:1]; X13 = COc1ccc(-c2cccc(C[C@@H](C(=O)[*:2])N(C)[*:1])c2)cc1; X3 = CN([C@@H](Cc1cccc(-c2ccc(Cl)cc2)c1)C(=O)[*:2])[*:1]; X8 = CN([C@@H](Cc1cccc(-c2ccc(Cl)nc2)c1)C(=O)[*:2])[*:1]; X10 = CCCCCC/C=C/c1cccc(C[C@@H](C(=O)[*:2])N(C)[*:1])c1; X6 = CN([C@@H](Cc1cccc(-c2ccccc2Cl)c1)C(=O)[*:2])[*:1]; X11 = CN([C@@H](Cc1ccc(-c2cccnc2)cc1)C(=O)[*:2])[*:1]; X14 = CN([C@@H](Cc1cccc(C2=CCCCC2)c1)C(=O)[*:2])[*:1]; X9 = CN([C@@H](Cc1cccc(-c2ccncc2)c1)C(=O)[*:2])[*:1]; NMePhe(3-Ph) = CN[C@@H](Cc1cccc(-c2ccccc2)c1)C(=O)O; X5 = CN([C@@H](Cc1cccc(B(O)O)c1)C(=O)[*:2])[*:1]; NMePhe(3-Br) = CN[C@@H](Cc1cccc(Br)c1)C(=O)O; NMePhe(3-I) = CN[C@@H](Cc1cccc(I)c1)C(=O)O; Hmp(2R,3S) = CC[C@H](C)[C@@H](O)C(=O)O; NMeVal(β-OH) = CN[C@H](C(=O)O)C(C)(C)O; NMeD = CN[C@@H](CC(=O)O)C(=O)O; NMeV = CN[C@H](C(=O)O)C(C)C

Columns and labels:
Type in all cases: functional
Candida albicans = assay: Antifungal activity against Candida albicans by broth dilution method
Aspergillus fumigatus = assay: Antifungal activity against Aspergillus fumigatus by broth dilution method
[1] = Ratio of MIC for Aspergillus fumigatus to MIC for Candida albicans

SMILES	MIC (Candida albicans) [µg/mL]	MIC (Aspergillus fumigatus) [µg/mL]	Ratio [1]	Activity (Candida albicans)
CC[C@H](C)[C@@H]1NC(=O)[C@@H]2CCCN2C(=O)[C@H](CC(=O)O)N(C)C(=O)[C@H](CC(=O)O)NC(=O)[C@H](C(C)C)N(C)C(=O)[C@@H]([C@@H](C)CC)OC(=O)[C@H](C(C)(C)O)N(C)C(=O)[C@H](CC(C)C)NC(=O)[C@H](C(C)C)N(C)C1=O (cyclo(D[NMeD]PI[NMeV]L[NMeVal(β-OH)][Hmp(2R,3S)][NMeV]))	10 (≈ 9.64 µM)	> 100		
CC[C@H](C)[C@@H]1NC(=O)[C@@H]2CCCN2C(=O)[C@H](Cc2cccc(Br)c2)N(C)C(=O)[C@H](CC(=O)O)NC(=O)[C@H](C(C)C)N(C)C(=O)[C@@H]([C@@H](C)CC)OC(=O)[C@H](C(C)(C)O)N(C)C(=O)[C@H](CC(C)C)NC(=O)[C@H](C(C)C)N(C)C1=O (cyclo(D[NMePhe(3-Br)]PI[NMeV]L[NMeVal(β-OH)][Hmp(2R,3S)][NMeV]))	5 (≈ 4.35 µM)	10 (≈ 8.71 µM)		
CC[C@H](C)[C@@H]1NC(=O)[C@@H]2CCCN2C(=O)[C@H](Cc2cccc(Br)c2)N(C)C(=O)[C@H](Cc2ccccc2)NC(=O)[C@H](C(C)C)N(C)C(=O)[C@@H]([C@@H](C)CC)OC(=O)[C@H](C(C)(C)O)N(C)C(=O)[C@H](CC(C)C)NC(=O)[C@H](C(C)C)N(C)C1=O (cyclo(F[NMePhe(3-Br)]PI[NMeV]L[NMeVal(β-OH)][Hmp(2R,3S)][NMeV]))	0.031 (≈ 0.0263 µM)	2.5 (≈ 2.12 µM)		
CC[C@H](C)[C@@H]1NC(=O)[C@@H]2CCCN2C(=O)[C@H](Cc2cccc(I)c2)N(C)C(=O)[C@H](Cc2ccccc2)NC(=O)[C@H](C(C)C)N(C)C(=O)[C@@H]([C@@H](C)CC)OC(=O)[C@H](C(C)(C)O)N(C)C(=O)[C@H](CC(C)C)NC(=O)[C@H](C(C)C)N(C)C1=O (cyclo(F[NMePhe(3-I)]PI[NMeV]L[NMeVal(β-OH)][Hmp(2R,3S)][NMeV]))	2.5 (≈ 2.04 µM)	> 5		
CC[C@H](C)[C@@H]1NC(=O)[C@@H]2CCCN2C(=O)[C@H](Cc2cccc(-c3ccccc3)c2)N(C)C(=O)[C@H](Cc2ccccc2)NC(=O)[C@H](C(C)C)N(C)C(=O)[C@@H]([C@@H](C)CC)OC(=O)[C@H](C(C)(C)O)N(C)C(=O)[C@H](CC(C)C)NC(=O)[C@H](C(C)C)N(C)C1=O (cyclo(F[NMePhe(3-Ph)]PI[NMeV]L[NMeVal(β-OH)][Hmp(2R,3S)][NMeV]))	< 0.05	< 0.94	> 10	
CC[C@H](C)[C@@H]1NC(=O)[C@@H]2CCCN2C(=O)[C@H](Cc2cccc(-c3cccc(-c4ccccc4)c3)c2)N(C)C(=O)[C@H](Cc2ccccc2)NC(=O)[C@H](C(C)C)N(C)C(=O)[C@@H]([C@@H](C)CC)OC(=O)[C@H](C(C)(C)O)N(C)C(=O)[C@H](CC(C)C)NC(=O)[C@H](C(C)C)N(C)C1=O (cyclo(F[X2]PI[NMeV]L[NMeVal(β-OH)][Hmp(2R,3S)][NMeV]))	< 5	> 5		
CC[C@H](C)[C@@H]1NC(=O)[C@@H]2CCCN2C(=O)[C@H](Cc2cccc(-c3ccc(Cl)cc3)c2)N(C)C(=O)[C@H](Cc2ccccc2)NC(=O)[C@H](C(C)C)N(C)C(=O)[C@@H]([C@@H](C)CC)OC(=O)[C@H](C(C)(C)O)N(C)C(=O)[C@H](CC(C)C)NC(=O)[C@H](C(C)C)N(C)C1=O (cyclo(F[X3]PI[NMeV]L[NMeVal(β-OH)][Hmp(2R,3S)][NMeV]))	< 0.5	< 2.5	> 10	
CC[C@H](C)[C@@H]1NC(=O)[C@@H]2CCCN2C(=O)[C@H](Cc2cccc(-c3ccc(-c4ccccc4)cc3)c2)N(C)C(=O)[C@H](Cc2ccccc2)NC(=O)[C@H](C(C)C)N(C)C(=O)[C@@H]([C@@H](C)CC)OC(=O)[C@H](C(C)(C)O)N(C)C(=O)[C@H](CC(C)C)NC(=O)[C@H](C(C)C)N(C)C1=O (cyclo(F[X4]PI[NMeV]L[NMeVal(β-OH)][Hmp(2R,3S)][NMeV]))	< 5	> 5		
CC[C@H](C)[C@@H]1NC(=O)[C@@H]2CCCN2C(=O)[C@H](Cc2cccc(B(O)O)c2)N(C)C(=O)[C@H](Cc2ccccc2)NC(=O)[C@H](C(C)C)N(C)C(=O)[C@@H]([C@@H](C)CC)OC(=O)[C@H](C(C)(C)O)N(C)C(=O)[C@H](CC(C)C)NC(=O)[C@H](C(C)C)N(C)C1=O (cyclo(F[X5]PI[NMeV]L[NMeVal(β-OH)][Hmp(2R,3S)][NMeV]))	< 0.05	> 100		
CC[C@H](C)[C@@H]1NC(=O)[C@@H]2CCCN2C(=O)[C@H](Cc2cccc(-c3ccccc3Cl)c2)N(C)C(=O)[C@H](Cc2ccccc2)NC(=O)[C@H](C(C)C)N(C)C(=O)[C@@H]([C@@H](C)CC)OC(=O)[C@H](C(C)(C)O)N(C)C(=O)[C@H](CC(C)C)NC(=O)[C@H](C(C)C)N(C)C1=O (cyclo(F[X6]PI[NMeV]L[NMeVal(β-OH)][Hmp(2R,3S)][NMeV]))	< 0.5	< 1.25	> 10	
CC[C@H](C)[C@@H]1NC(=O)[C@@H]2CCCN2C(=O)[C@H](Cc2cccc(B3OC(C)(C)C(C)(C)O3)c2)N(C)C(=O)[C@H](Cc2ccccc2)NC(=O)[C@H](C(C)C)N(C)C(=O)[C@@H]([C@@H](C)CC)OC(=O)[C@H](C(C)(C)O)N(C)C(=O)[C@H](CC(C)C)NC(=O)[C@H](C(C)C)N(C)C1=O (cyclo(F[X7]PI[NMeV]L[NMeVal(β-OH)][Hmp(2R,3S)][NMeV]))	< 0.5	10 (≈ 8.15 µM)		
CC[C@H](C)[C@@H]1NC(=O)[C@@H]2CCCN2C(=O)[C@H](Cc2cccc(-c3ccc(Cl)nc3)c2)N(C)C(=O)[C@H](Cc2ccccc2)NC(=O)[C@H](C(C)C)N(C)C(=O)[C@@H]([C@@H](C)CC)OC(=O)[C@H](C(C)(C)O)N(C)C(=O)[C@H](CC(C)C)NC(=O)[C@H](C(C)C)N(C)C1=O (cyclo(F[X8]PI[NMeV]L[NMeVal(β-OH)][Hmp(2R,3S)][NMeV]))	< 0.025	< 1.25	> 10	
CC[C@H](C)[C@@H]1NC(=O)[C@@H]2CCCN2C(=O)[C@H](Cc2cccc(-c3ccncc3)c2)N(C)C(=O)[C@H](Cc2ccccc2)NC(=O)[C@H](C(C)C)N(C)C(=O)[C@@H]([C@@H](C)CC)OC(=O)[C@H](C(C)(C)O)N(C)C(=O)[C@H](CC(C)C)NC(=O)[C@H](C(C)C)N(C)C1=O (cyclo(F[X9]PI[NMeV]L[NMeVal(β-OH)][Hmp(2R,3S)][NMeV]))	< 0.025	< 1.25	> 10	
CCCCCC/C=C/c1cccc(C[C@H]2C(=O)N3CCC[C@H]3C(=O)N[C@@H]([C@@H](C)CC)C(=O)N(C)[C@@H](C(C)C)C(=O)N[C@@H](CC(C)C)C(=O)N(C)[C@@H](C(C)(C)O)C(=O)O[C@H]([C@@H](C)CC)C(=O)N(C)[C@@H](C(C)C)C(=O)N[C@@H](Cc3ccccc3)C(=O)N2C)c1 (cyclo(F[X10]PI[NMeV]L[NMeVal(β-OH)][Hmp(2R,3S)][NMeV]))		> 5		
CC[C@H](C)[C@@H]1NC(=O)[C@@H]2CCCN2C(=O)[C@H](Cc2ccc(-c3cccnc3)cc2)N(C)C(=O)[C@H](Cc2ccccc2)NC(=O)[C@H](C(C)C)N(C)C(=O)[C@@H]([C@@H](C)CC)OC(=O)[C@H](C(C)(C)O)N(C)C(=O)[C@H](CC(C)C)NC(=O)[C@H](C(C)C)N(C)C1=O (cyclo(F[X11]PI[NMeV]L[NMeVal(β-OH)][Hmp(2R,3S)][NMeV]))		< 2.5		Active
CC[C@H](C)[C@@H]1NC(=O)[C@@H]2CCCN2C(=O)[C@H](Cc2cccc(-c3ccc(NC(C)=O)cc3)c2)N(C)C(=O)[C@H](Cc2ccccc2)NC(=O)[C@H](C(C)C)N(C)C(=O)[C@@H]([C@@H](C)CC)OC(=O)[C@H](C(C)(C)O)N(C)C(=O)[C@H](CC(C)C)NC(=O)[C@H](C(C)C)N(C)C1=O (cyclo(F[X12]PI[NMeV]L[NMeVal(β-OH)][Hmp(2R,3S)][NMeV]))		> 5		
CC[C@H](C)[C@@H]1NC(=O)[C@@H]2CCCN2C(=O)[C@H](Cc2cccc(-c3ccc(OC)cc3)c2)N(C)C(=O)[C@H](Cc2ccccc2)NC(=O)[C@H](C(C)C)N(C)C(=O)[C@@H]([C@@H](C)CC)OC(=O)[C@H](C(C)(C)O)N(C)C(=O)[C@H](CC(C)C)NC(=O)[C@H](C(C)C)N(C)C1=O (cyclo(F[X13]PI[NMeV]L[NMeVal(β-OH)][Hmp(2R,3S)][NMeV]))	5 (≈ 4.14 µM)			
CC[C@H](C)[C@@H]1NC(=O)[C@@H]2CCCN2C(=O)[C@H](Cc2cccc(C3=CCCCC3)c2)N(C)C(=O)[C@H](Cc2ccccc2)NC(=O)[C@H](C(C)C)N(C)C(=O)[C@@H]([C@@H](C)CC)OC(=O)[C@H](C(C)(C)O)N(C)C(=O)[C@H](CC(C)C)NC(=O)[C@H](C(C)C)N(C)C1=O (cyclo(F[X14]PI[NMeV]L[NMeVal(β-OH)][Hmp(2R,3S)][NMeV]))		> 5		
CC[C@H](C)[C@@H]1NC(=O)[C@@H]2CCCN2C(=O)[C@H](Cc2cccc(-c3ccc(C(=O)NC)cc3)c2)N(C)C(=O)[C@H](Cc2ccccc2)NC(=O)[C@H](C(C)C)N(C)C(=O)[C@@H]([C@@H](C)CC)OC(=O)[C@H](C(C)(C)O)N(C)C(=O)[C@H](CC(C)C)NC(=O)[C@H](C(C)C)N(C)C1=O (cyclo(F[X15]PI[NMeV]L[NMeVal(β-OH)][Hmp(2R,3S)][NMeV]))		> 5		
